Laboratory results reported in patent publication US12551463B2, “Dosing of a Bruton's tyrosine kinase inhibitor” (Loxo Oncology, Inc., priority 2019, dated 2026).
“Also recorded” adds a separate entry of the source.

Key:
[1] = system: Richter's transformation; assay: Phase 1/2 clinical study, Richter's transformation patients; type: in vivo, human; settings: 6 of 8 patients
Text: (§1) The study is an open-label, multi-center study of oral BTK-I to evaluate safety and efficacy as monotherapy and as part of combination therapy in patients with CLL/SLL and NHL who have failed or are intolerant to standard of care. This study includes monotherapy as well as combination treatment parts. The monotherapy part includes Phase 1 dose escalation and dose expansion as well as Phase 2. The combination therapy part is a Phase 1b (safety assessment and expansion) of BTK-I in combination with venetoclax, with or without anti-CD20 therapy. Phase 1 dose escalation will proceed prior to start of Phase 1b or Phase 2. Once a recommended Phase 2 dose (RP2D) is identified in Phase 1, enrollment can commence to the Phase 1b combination therapies and Phase 2 monotherapy cohorts. […]
(§2) The primary objective of the Phase 2 is to assess the primary anti-tumor activity of BTK-I based on overall response rate (ORR) and as assessed by the Independent Review Committee. […]
(§3) Dosing during Phase 2 will be at the RP2D of 200 mg QD. […] The dose (and schedule) chosen for Phase 2 may be changed by the SRC based on emerging data (e.g., PK, safety, and/or efficacy) as long as the new dose is not greater than the highest dose that has a DLT <33% and is determined to be safe by the SRC in Phase 1. […]

[2] = system: TMD8 BTK WT cells; assay: In vivo mouse xenograft study, TMD8 BTK WT; parameters: species or system mice; settings: BTK-I BID alone; BTK WT driven TMD8 (DLBCL) xenograft
Experimental: (§4) In all studies, test articles are administered alone and in combination, following different dosing regimens.
(§5) Human TMD8 BTK WT, TMD8 BTK C481S or REC-1 cells are injected subcutaneously in the right flank of mice. When tumors reach a mean volume between 150 mm^3 and 400 mm^3, mice are randomized based on their tumor volumes. Mice are next dosed for 14 to 23 days depending on the study design. The potencies of the compounds stand-alone or in combination on the inhibition of the tumor growth are assessed based on the tumor volume changes and weights after collection at the end of the study. Additionally, in the TMD8 studies, the plasma concentrations of test articles are measured at multiple time points after the last dose.

[3] = system: CLL/SLL; assay: Phase 1/2 clinical study, CLL/SLL patients; type: in vivo, human
Text: (§6) The study is an open-label, multi-center study of oral BTK-I to evaluate safety and efficacy as monotherapy and as part of combination therapy in patients with CLL/SLL and NHL who have failed or are intolerant to standard of care. This study includes monotherapy as well as combination treatment parts. The monotherapy part includes Phase 1 dose escalation and dose expansion as well as Phase 2. The combination therapy part is a Phase 1b (safety assessment and expansion) of BTK-I in combination with venetoclax, with or without anti-CD20 therapy. Phase 1 dose escalation will proceed prior to start of Phase 1b or Phase 2. Once a recommended Phase 2 dose (RP2D) is identified in Phase 1, enrollment can commence to the Phase 1b combination therapies and Phase 2 monotherapy cohorts.
(§7) The primary objectives of the Phase 1 Dose Escalation and Expansion part of the study is to determine the maximum tolerated dose (MTD)/RP2D of oral BTK-I in patients with previously treated CLL/SLL and B-cell NHL.
(§8) Patients are enrolled with histologically confirmed CLL/SLL or B-cell NHL who have failed or are intolerant to at least two prior standard of care regimens given in combination or sequentially or have received at least one prior BTK inhibitor-containing regimen when BTK inhibitor is approved in first line.
(§9) BTK-I is administered in oral tablet form. Dose escalation will follow a 3+3 design starting with a 25 mg QD dose (followed by 50 mg QD (dose level cohort 2), 100 mg QD (dose level cohort 3), 150 mg QD (dose level cohort 4), 200 mg QD (dose level cohort 5), 250 mg QD (dose level cohort 6), and 300 mg QD (dose level cohort 7)). Cycle length will be 28 days. The drug limiting toxicity (DLT) period will be 28 days, commencing with the first dose of BTK-I.
The primary objective of the Phase 2 is to assess the primary anti-tumor activity of BTK-I based on overall response rate (ORR) and as assessed by the Independent Review Committee.
At the RP2D up to ˜600 patients with CLL/SLL or NHL will be enrolled to one of the following cohorts: • Cohort 1: Non-blastoid MCL patients treated with a prior BTK-inhibitor. • Cohort 2: CLL/SLL patients treated with 2 or more prior regimens, including a BTK inhibitor-containing regimen. • Cohort 3: CLL/SLL patients with no prior therapy. • Cohort 4: CLL/SLL patients treated with prior therapy, BTK inhibitor naive. • Cohort 5: WM patients treated with a prior BTK inhibitor containing regimen. • Cohort 6: MZL patients treated with a prior BTK inhibitor containing regimen. • Cohort 7: (Not otherwise specified) defined as CLL/SLL or NHL not otherwise specified in Cohorts 1 through 6, inclusive of CLL/SLL or NHL, Richter's transformation, blastoid MCL, and patients with history of CNS involvement or primary CNS lymphoma.
Dosing during Phase 2 will be at the RP2D of 200 mg QD. The cycle length will be 28 days. BTK-I will be administered to the Phase 2 patients in oral tablet form at the RP2D. The dose (and schedule) chosen for Phase 2 may be changed by the SRC based on emerging data (e.g., PK, safety, and/or efficacy) as long as the new dose is not greater than the highest dose that has a DLT <33% and is determined to be safe by the SRC in Phase 1. If the RP2D is changed based on emerging data, patients enrolled to Phase 2 at a different dose may have the dose changed to the new dose.

[4] = system: CLL/SLL and B-cell NHL; assay: Phase 1/2 clinical study of oral BTK-I monotherapy, all patients; type: in vivo, human
Text: as §6, §7, §8, §9, §2, §3

[5] = system: REC-1 cells; assay: In vivo mouse xenograft study, REC-1; parameters: species or system mice; settings: BTK-I BID alone; BTK WT driven REC-1 (MCL) xenograft
Experimental: as §4, §5

[6] = system: MZL; assay: Phase 1/2 clinical study, MZL patients; type: in vivo, human
Text: as §1, §2, §3

[7] = system: follicular lymphoma; assay: Phase 1/2 clinical study, follicular lymphoma patients; type: in vivo, human; settings: among 8 efficacy-evaluable patients
Text: as §1, §2, §3

## COc1ccc(F)cc1C(=O)NCc1ccc(-c2nn([C@@H](C)C(F)(F)F)c(N)c2C(N)=O)cc1 [BTK-I, (S)-5-amino-3-(4-((5-fluoro-2-methoxybenzamido)methyl)phenyl)-1-(1,1,1-trifluoropropane-2-yl)-1H-pyrazole-4-carboxamide]
[1]
  responses: 75%
[2]
  inhibition of xenograft tumor growth: potently inhibited the growth
[3]; 28 patients with 17p deletion, TP53 mutation, or both
  ORR: 79%
[3]; 121 BTK-pretreated patients, CI: 53-71%
  ORR: 62%
[3]; 139 efficacy-evaluable CLL/SLL patients, all dose levels, 95% CI: 55-71
  ORR: 63%
[3]; all CLL/SLL patients
  patients remaining on BTK-I: 88%
[3]; at ≥10 months (25/29)
  ORR: 86%
[3]; discontinued covalent BTK inhibitor for progression [53/79]
  ORR: 67%
[3]; discontinued covalent BTK inhibitor for toxicity or another reason [22/42]
  ORR: 52%
[3]; followed for at least 8 months (35/49)
  ORR: 71%
[3]; majority of responding patients
  BTK C481 mutant allele fraction from peripheral blood mononuclear cells: decreased over time
[3]; of 88 responders (4 progressed, 1 electively discontinued)
  responding patients no longer on therapy: 5
[3]; of 139, discontinued prior to first response assessment
  non-evaluable (NE), patients: 5
[3]; of 139 efficacy-evaluable
  PR-L, patients: 19
  partial response (PR), patients: 69
  progressive disease (PD), patients: 1
  stable disease (SD), patients: 45
[3]; progression on prior covalent BTK inhibitor, with BTK C481 mutation [15/20]
  ORR: 75%
[3]; progression on prior covalent BTK inhibitor, without BTK C481 mutation [18/30]
  ORR: 60%
[4]; 25 mg QD
  responses at first dose level: Responses were observed
[4]; 7 dose levels, 25 mg to 300 mg QD
  clinical activity/efficacy across dose levels: demonstrated activity across all dose levels; also recorded: Efficacy was observed at all dose levels
[4]; 237 of 323 at data cut
  treated patients remaining on BTK-I: 73%
[4]; remaining 39 patients (other B-cell malignancies)
  responses in remaining efficacy-evaluable patients: 8
[5]
  inhibition of xenograft tumor growth: potently inhibited the growth
[6]
  responses/patients: 2/9
[7]
  patients with responses: 4
